Reference: ChEMBL document CHEMBL4138247, “Synthesis of new triterpenic monomers and dimers as potential antiproliferative agents and their molecular docking studies” (Eur J Med Chem, 2018)

Key:
Type in all cases: functional, cell-based
A2780 = experiment: Antiproliferative activity against human A2780 cells after 96 hrs by SRB assay; conditions: A2780, 96 h
FaDu = experiment: Antiproliferative activity against human FADU cells after 96 hrs by SRB assay
HT-29 = experiment: Antiproliferative activity against human HT-29 cells after 96 hrs by SRB assay; conditions: HT-29, 96 h
A-375 = experiment: Antiproliferative activity against human A375 cells after 96 hrs by SRB assay; conditions: A-375, 96 h

| Structure (SMILES) | IC50 (A2780) [µM] | IC50 (FaDu) [µM] | IC50 (HT-29) [µM] | IC50 (A-375) [µM] |
| --- | --- | --- | --- | --- |
| C/C(=C\CC/C(C)=C/CC[C@@H]1[C@@]2(C)CCC(=O)C(C)(C)[C@@H]2CC[C@@]1(C)O)CC/C=C(\C)C(=O)OCCOC(=O)/C(C)=C/CC/C(C)=C/CC/C(C)=C/CC[C@@H]1[C@@]2(C)CC[C@@H](O)C(C)(C)[C@@H]2CC[C@@]1(C)O | 20.7 | > 30 | 10 | 15.5 |
| C/C(=C\CC/C(C)=C/CC[C@@H]1[C@@]2(C)CCC(=O)C(C)(C)[C@@H]2CC[C@@]1(C)O)CC/C=C(\C)C(=O)OCCCBr | 18.1 | > 30 | 8.1 | 11.8 |
| C=C(C)[C@@H]1CC[C@]2(C)CC[C@]3(C)[C@H](CC[C@@H]4[C@@]5(C)CC[C@@H](O)[C@](C)(C(=O)OCCCCBr)[C@@H]5CC[C@]43C)[C@@H]12 | > 30 | > 30 | > 30 | 18 |
| C/C(=C\CC/C(C)=C/CC[C@@H]1[C@@]2(C)CCC(=O)C(C)(C)[C@@H]2CC[C@@]1(C)O)CC/C=C(\C)C(=O)OCCCCOC(=O)/C(C)=C/CC/C(C)=C/CC/C(C)=C/CC[C@@H]1[C@@]2(C)CC[C@H](O)C(C)(C)[C@@H]2CC[C@@]1(C)O | 16.1 | 28.2 | 8.2 | 10.6 |
| C/C(=C\CC/C(C)=C/CC[C@@H]1[C@@]2(C)CCC(=O)C(C)(C)[C@@H]2CC[C@@]1(C)O)CC/C=C(\C)C(=O)OCCCOC(=O)[C@@]1(C)[C@H](O)CC[C@@]2(C)[C@H]1CC[C@]1(C)[C@@H]2C(=O)C=C2[C@@H]3[C@@H](C)[C@H](C)CC[C@]3(C)CC[C@]21C | > 30 | > 30 | > 30 | > 30 |
| C/C(=C\CC/C(C)=C/CC[C@@H]1[C@@]2(C)CCC(=O)C(C)(C)[C@@H]2CC[C@@]1(C)O)CC/C=C(\C)C(=O)OCCCCOC(=O)/C(C)=C/CC/C(C)=C/CC/C(C)=C/CC[C@@H]1[C@@]2(C)CCC(=O)C(C)(C)[C@@H]2CC[C@@]1(C)O | 24.2 | > 30 | 8.8 | 12.4 |
| C/C(=C\CC/C(C)=C/CC[C@@H]1[C@@]2(C)CCC(=O)C(C)(C)[C@@H]2CC[C@@]1(C)O)CC/C=C(\C)C(=O)OCCCCOC(=O)[C@@]1(C)[C@H](O)CC[C@@]2(C)[C@H]1CC[C@]1(C)[C@@H]2C(=O)C=C2[C@@H]3[C@@H](C)[C@H](C)CC[C@]3(C)CC[C@]21C | > 30 | > 30 | > 30 | > 30 |
| C=C(C)[C@@H]1CC[C@]2(C)CC[C@]3(C)[C@H](CC[C@@H]4[C@@]5(C)CC[C@@H](O)[C@](C)(C(=O)OCCCBr)[C@@H]5CC[C@]43C)[C@@H]12 | 26.9 | 27.1 | 24.5 | 16.7 |
| C/C(=C\CC/C(C)=C/CC[C@@H]1[C@@]2(C)CCC(=O)C(C)(C)[C@@H]2CC[C@@]1(C)O)CC/C=C(\C)C(=O)OCCBr | > 30 | > 30 | > 30 | > 30 |
| C=C(C)[C@@H]1CC[C@]2(C(=O)OCCCCOC(=O)/C(C)=C/CC/C(C)=C/CC/C(C)=C/CC[C@@H]3[C@@]4(C)CCC(=O)C(C)(C)[C@@H]4CC[C@@]3(C)O)CC[C@]3(C)[C@H](CC[C@@H]4[C@@]5(C)CC[C@H](O)C(C)(C)[C@@H]5CC[C@]43C)[C@@H]12 | > 30 | > 30 | > 30 | > 30 |
| C/C(=C\CC/C(C)=C/CC[C@@H]1[C@@]2(C)CCC(=O)C(C)(C)[C@@H]2CC[C@@]1(C)O)CC/C=C(\C)C(=O)OCCCOC(=O)/C(C)=C/CC/C(C)=C/CC/C(C)=C/CC[C@@H]1[C@@]2(C)CC[C@@H](O)C(C)(C)[C@@H]2CC[C@@]1(C)O | 14.8 | 25.1 | 6.8 | 11.1 |
| C/C(=C\CC/C(C)=C/CC[C@@H]1[C@@]2(C)CCC(=O)C(C)(C)[C@@H]2CC[C@@]1(C)O)CC/C=C(\C)C(=O)OCCCCBr | 21.6 | > 30 | 14.6 | 14.5 |
| C/C(=C\CC/C(C)=C/CC[C@@H]1[C@@]2(C)CCC(=O)C(C)(C)[C@@H]2CC[C@@]1(C)O)CC/C=C(\C)C(=O)OCCOC(=O)/C(C)=C/CC/C(C)=C/CC/C(C)=C/CC[C@@H]1[C@@]2(C)CCC(=O)C(C)(C)[C@@H]2CC[C@@]1(C)O | > 30 | > 30 | 14 | 24.5 |
| C=C(C)[C@@H]1CC[C@]2(C)CC[C@]3(C)[C@H](CC[C@@H]4[C@@]5(C)CC[C@@H](O)[C@](C)(C(=O)OCCBr)[C@@H]5CC[C@]43C)[C@@H]12 | 29 | 26.4 | 23 | 17.4 |
| C/C(=C\CC/C(C)=C/CC[C@@H]1[C@@]2(C)CCC(=O)C(C)(C)[C@@H]2CC[C@@]1(C)O)CC/C=C(\C)C(=O)OCCCOC(=O)/C(C)=C/CC/C(C)=C/CC/C(C)=C/CC[C@@H]1[C@@]2(C)CCC(=O)C(C)(C)[C@@H]2CC[C@@]1(C)O | 16 | > 30 | 5.4 | 10.4 |
| C/C(=C\CC/C(C)=C/CC[C@@H]1[C@@]2(C)CCC(=O)C(C)(C)[C@@H]2CC[C@@]1(C)O)CC/C=C(\C)C(=O)OCCOC(=O)[C@@]1(C)[C@H](O)CC[C@@]2(C)[C@H]1CC[C@]1(C)[C@@H]2C(=O)C=C2[C@@H]3[C@@H](C)[C@H](C)CC[C@]3(C)CC[C@]21C | > 30 | > 30 | > 30 | > 30 |
